Measured values reported in publication PMC7587960 (Molecules, 2020).
In brackets after ≈: the same amount, converted by molar mass. Entries after “also recorded” stand apart in the source; their conditions may differ. Like-named read-outs stand apart in the source and are kept apart here.

Tests used:
IAV (strain A/PR/8/34) = system: IAV (strain A/PR/8/34); design: method as in PMID 21899996; conditions: MDCK cells, cited from earlier work
[1] = system: influenza A virus (A/Panama/2007/1999 (H3N2)); design: method as in PMID 31826721; conditions: pre-treatment for 1 h, human lung tissues, IAV A/Panama/2007/1999 (H3N2); cited from earlier work
[2] = system: influenza A virus (strain A/WSN/33 (H1N1)) proteins PB1, NP, M1, NS1; type: cell-based
[3] = system: influenza A virus (strain A/WSN/33 (H1N1)) RNA transcription; type: cell-based
[4] = target: IAV polymerase (PB1, PB2, PA, NP) (Influenza A virus, UniProt P03427+P03430+P15659); type: cell-based
[5] = target: viral polymerase complex (PA, PB1, NP, Strep-PB2) (Influenza A virus, UniProt P03427+P03430+P15659); type: cell-based
[6] = system: influenza A virus (A/Panama/2007/1999 (H3N2))
[7] = system: influenza A virus (strain A/WSN/33 (H1N1)); conditions: for IC50: read-out: IC50 IAV (Strain WSN/33 (H1N1)), A549 cells
[8] = system: influenza A virus (strain A/WSN/33 (H1N1))
Na+/K+-ATPase = system: Na+/K+-ATPase; design: method as in PMID 30798081; conditions: cited from earlier work
in vitro [9] = conditions: human
Method: (§1) A549 and MDCK cells were seeded in 96-well plates and grown overnight. […] Next, 15 µL of sterile water or Triton X-100 10% (CytoSelect^TM LDH Cytotoxicity Assay Kit) were added to each well in DMEM or MEM, for 10 min, at room temperature. Supernatants were collected and stored at −80 °C until used. Supernatants (90 µL) were transferred to clean 96-well plates and 10 µL of LDH Reagent (CytoSelect^TM LDH Cytotoxicity Assay Kit) were added to each sample and incubated for 20 min. Quantification was performed using a spectrophotometer at 405 nm. The concentration of each sample that reduced cell viability by 50% was estimated as CC50.

in vitro [10] = conditions: dog
Method: as §1

[11] = system: influenza A virus (strain A/WSN/33 (H1N1)); experiment: microbe, parasite or virus in culture; conditions: A549, 24 h, read-out: IC50 IAV (Strain WSN/33 (H1N1)), A549 cells
[12] = system: influenza A virus (strain A/WSN/33 (H1N1)); experiment: microbe, parasite or virus in culture; conditions: MDCK, 24 h, read-out: IC50 IAV (Strain WSN/33 (H1N1)), MDCK cells
[13] = system: human tumor-free lung tissue explants; experiment: Viability of human tumor-free lung explants (LDH release); conditions: treated lung tissues, 48 h p.i.

Compound	early (NS1, NP, PB1) and late (M1) viral protein expression [2]	viral mRNA levels (NP segment 5, M1 segment 7) [3]	decrease of polymerase activity [4]	viral polymerase complex assembly (PA, PB1, NP in complex precipitates) [5]	viral replication / viral titers [6]	reduction of viral titers [7]	IC50 [7]	fold by which the IC50 of oleandrigenin-β-D-glucosyl (1→4)-β-D-digitalose is higher than that of the compound [8]	Na+/K+-ATPase inhibition (Na+/K+-ATPase)	CC50 (in vitro [9])	CC50 (in vitro [10])	IC50 [11]	IC50 [12]	tissue integrity / tissue toxicity (LDH release) [13]	further results
COC1C(O)C(OC2CCC3(C)C(CCC4C3CCC3(C)C(C5=CC(=O)OC5)C(OC(C)=O)CC43O)C2)OC(C)C1OC1OC(CO)C(O)C(O)C1O [oleandrigenin-β-D-glucosyl (1→4)-β-D-digitalose]	–	–	–	–	–	–	–	–	–	–	–	–	–	–	IC50 (IAV (strain A/PR/8/34); strain A/PR/8/34, converted from µg/mL, read-out: IC50, IAV titer reduction): 1140 nM; IC50, IAV titer reduction (IAV (strain A/PR/8/34); strain A/PR/8/34): 0.86 µg/mL (≈ 1.14 µM)
CO/C1=C\C(C)=C\[C@@H](C)[C@@H](O)[C@@H](C)C/C(C)=C/C=C/[C@H](OC)[C@@H]([C@@H](C)[C@@H](O)[C@H](C)[C@@]2(O)C[C@@H](O)[C@H](C)[C@@H](C(C)C)O2)OC1=O [bafilomycin A]	–	–	–	–	–	–	–	–	–	–	–	–	–	–	IAV replication in lung tissues [1]: abolished IAV replication
C[C@]12CC[C@H](NC(=O)CNCCO)C[C@H]1CC[C@@H]1[C@@H]2CC[C@]2(C)[C@@H](C3=CC(=O)OC3)CC[C@]12O [C10]	decreased	decreased	> 50%	interfered	completely abrogated viral replication; also recorded: below the detection limit	> 50%	57 ± 2 nM	19 fold	inhibited	> 5000 nM	> 5000 nM	~60 nM	~60 nM	did not reduce tissue integrity	reduction of viral titers [6]: 4 logs
C[C@]12CC[C@H](NC(=O)CO)C[C@H]1CC[C@@H]1[C@@H]2CC[C@]2(C)[C@@H](C3=CC(=O)OC3)CC[C@]12O [C11, 3β-(hydroxyacetyl)amino-3-deoxydigitoxigenin]	decreased	decreased	approximately 40%	interfered	abolished viral replication; also recorded: below the detection limit	> 50%	62 nM	17 fold	inhibited	> 5000 nM	> 5000 nM	~60 nM	~60 nM	> 2 fold over control	reduction of polymerase activity [4]: no significant reduction; IC50 ([8]; read-out: IC50 IAV (Strain WSN/33 (H1N1)), MDCK cells): 66 ± 6 nM
C[C@]12CC[C@H](O)C[C@H]1CC[C@@H]1[C@@H]2CC[C@]2(C)[C@@H](C3=CC(=O)OC3)CC[C@]12O [Digitoxigenin, digitoxigenin, reference compound]	–	–	–	–	–	> 50%	–	–	–	–	–	70 ± 10 nM	72 ± 5 nM	–	SI (CC50/IC50), A549 cells [7]: 92.366; SI (CC50/IC50), MDCK cells [8]: 88.052; CC50 at 24 h (in vitro [9]): > 5000 nM; CC50 at 24 h (in vitro [10]): > 5000 nM
